Laboratory results as given in ChEMBL document CHEMBL4602687, “Dual Binding to Orthosteric and Allosteric Sites Enhances the Anticancer Activity of a TRAP1-Targeting Drug” (J Med Chem, 2020).
Residue numbers refer to the chain shown, from its start. The source made the active and inactive calls. The rule behind the calls is not given here.

How the values were obtained:
NCI-H460 = assay: Antitumor activity against human NCI-H460 cells xenografted in nude mouse assessed as induction of tumor cell death by measuring increase in cleaved caspase-3 expression at 5 mg/kg, ip administered daily by Western blot analysis; format: functional, organism-based
[1] = biological target: T1, Heat shock protein 75 kDa, mitochondrial (Homo sapiens) (UniProt Q12931); assay: Inhibition of TRAP1 in human PC3 cells assessed as reduction in SIRT3 expression at 5 uM measured after 2 to 12 hrs by Western blot analysis; format: cell-based; conditions: PC-3
T1 sequence (whole entry): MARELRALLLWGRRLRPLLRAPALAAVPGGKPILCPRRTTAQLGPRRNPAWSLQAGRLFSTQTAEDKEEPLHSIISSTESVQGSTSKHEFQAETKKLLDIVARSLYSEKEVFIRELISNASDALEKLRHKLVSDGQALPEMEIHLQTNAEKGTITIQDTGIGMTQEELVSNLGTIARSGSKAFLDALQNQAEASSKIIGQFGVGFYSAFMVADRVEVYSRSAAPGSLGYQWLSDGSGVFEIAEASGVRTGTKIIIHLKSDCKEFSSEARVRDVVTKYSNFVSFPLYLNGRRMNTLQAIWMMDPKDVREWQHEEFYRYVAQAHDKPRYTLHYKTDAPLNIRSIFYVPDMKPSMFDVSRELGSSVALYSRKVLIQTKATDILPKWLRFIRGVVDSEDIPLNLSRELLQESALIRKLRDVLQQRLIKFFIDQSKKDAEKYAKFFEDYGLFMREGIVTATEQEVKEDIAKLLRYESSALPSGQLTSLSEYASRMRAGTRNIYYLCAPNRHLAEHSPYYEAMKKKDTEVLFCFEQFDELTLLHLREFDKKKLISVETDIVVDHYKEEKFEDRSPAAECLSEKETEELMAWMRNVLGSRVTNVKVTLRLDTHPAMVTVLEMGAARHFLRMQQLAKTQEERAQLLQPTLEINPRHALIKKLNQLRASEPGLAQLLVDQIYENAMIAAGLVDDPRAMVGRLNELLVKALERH

[2] = biological target: T1, Heat shock protein 75 kDa, mitochondrial (Homo sapiens); assay: Inhibition of TRAP1 in human PC3 cells assessed as increase in reactive oxygen species generation at 10 uM measured after 2 hrs by Mito-SOX probe based flow cytometry; format: cell-based; conditions: PC-3
[3] = biological target: T1, Heat shock protein 75 kDa, mitochondrial (Homo sapiens); assay: Inhibition of TRAP1 in human PC3 cells assessed as reduction in SDHB expression at 5 uM measured after 2 to 12 hrs by Western blot analysis; format: cell-based; conditions: PC-3
[4] = test system: T2, Heat shock protein 75 kDa, mitochondrial (Homo sapiens), Q12931 [R402Q]; assay: Stimulation of recombinant […] human TRAP1 R402Q mutant ATPase activity expressed in Escherichia coli BL21 (DE3) up to 20 uM preincubated for 0.5 hrs followed by ATP addition and measured after 3 hrs by PiColorLock Gold reagent based colorimetric assay
T2 sequence (whole entry): T1 sequence (whole entry) with R402Q

[5] = biological target: T1, Heat shock protein 75 kDa, mitochondrial (Homo sapiens); assay: Inhibition of TRAP1 in human PC3 cells assessed as increase in AMPK phosphorylation at 5 uM measured after 2 to 12 hrs by Western blot analysis; format: cell-based; conditions: PC-3
[6] = test system: T3, Heat shock protein 75 kDa, mitochondrial (Homo sapiens), Q12931 [E115Q]; assay: Inhibition of recombinant […] human TRAP1 E115Q mutant ATPase activity expressed in Escherichia coli BL21 (DE3) up to 20 uM preincubated for 0.5 hrs followed by ATP addition and measured after 3 hrs by PiColorLock Gold reagent based colorimetric assay
T3 sequence (whole entry): T1 sequence (whole entry) with E115Q

[7] = biological target: T1, Heat shock protein 75 kDa, mitochondrial (Homo sapiens); assay: Inhibition of TRAP1 in human PC3 cells assessed as increase in CHOP expression at 5 uM measured after 2 to 12 hrs by Western blot analysis; format: cell-based; conditions: PC-3
Mus musculus = assay: In vivo inhibition of TRAP1 in nude mouse xenografted with human NCI-H460 cells assessed as increase in SDHB degradation at 5 mg/kg, ip administered daily by Western blot analysis; format: functional, organism-based
[8] = biological target: T1, Heat shock protein 75 kDa, mitochondrial (Homo sapiens); assay: Stimulation of recombinant wild-type human TRAP1 ATPase activity expressed in Escherichia coli BL21 (DE3) at 2 to 5 uM preincubated for 0.5 hrs followed by 0.2 mM ATP addition and measured after 3 hrs by PiColorLock Gold reagent based colorimetric assay relative to control

inhibition [1]: Active
inhibition [2]: Active
inhibition [3]: Active
Activity [4]: Active
inhibition [5]: Active
inhibition [6]: Active
inhibition [7]: Active
fold change (FC) [8]: 1.2
Compound: Nc1ncnc2c1nc(Sc1cc3c(cc1I)OCO3)n2CCCCCCCCCC[P+](c1ccccc1)(c1ccccc1)c1ccccc1
Activity (NCI-H460): Active
inhibition (Mus musculus): Active
